Data on five compounds can be found in patent US20230390279A1, “COMPOSITION AND METHOD FOR TREATING CANCER” (NOVMETAPHARMA CO., LTD., priority 2022, published 2023).

The inhibition is the change of the read-out against control, counted positive when it falls.

Holding throughout (assay type): cell-based
Assay [1] deals with sorafenib-resistant liver cancer cell line SK-Hep-R. Kind of assay: Cell proliferation, trypan blue cell count with hemocytometer. Particulars: sorafenib alone, FIG. 4B.
For assay [2], the system named is sorafenib-resistant liver cancer cell line Huh7-R. Described as above. Particulars: sorafenib alone, FIG. 4A.
The test system of assay [3] is sorafenib-resistant liver cancer cell line SK-Hep-R. Kind of assay: Cell death by FACS (annexin/PI) and cleaved caspase-3. The note with it: SK-Hep-R cells; FIGS. 1A to 1C. Here is the method:
(§1) To evaluate the cancer cell death by FACS, first, a cancer cell line was incubated in FITC-bound annexin and propidium iodide (PI) for 15 minutes, and annexin and PI binding were then measured by flow cytometry to acquire data using a BD Accuri C6 flow cytometer (BD Biosciences) and analyzed with the ACCURI™ C6 analysis program (BD Biosciences)/FlowJo software (FlowJo, LLC.). Cancer cell line death was evaluated using a cleaved caspase-3 antibody (Cell Signaling Technology).

Assay [4] has as its system sorafenib-resistant liver cancer cell line Huh7-SR. The description is as above. The note with it: Huh7-SR cells; FIGS. 1A to 1C. How it is done: as §1
For assay [5], the system named is Panc1 pancreatic cancer cells. Kind of assay: MTT cell viability assay, TKI combination. Particulars: Homo sapiens, PANC-1, ceritinib 2.5 μM, 24 hours, read-out: growth inhibition. Here is the method:
(§2) To evaluate anticancer effects of ERRγ compound, alone and in combination with TKIs, various cancer cells including A549, Panc-1, Sk-Hep-1, Huh-7, and SK-Hep-1 cells were cultured in DMEM containing 10% FBS and 1% antibiotics.
(§3) To initiate the assay, cells were seeded in 96-well plates at a density of 1×10^4 cells per well and incubated overnight in a 37° C. […] To serve as a control, an equal volume of DMSO was added. After 24 hours of incubation, the media was replaced with media containing 0.5 mg/ml of MTT and the plates were incubated for 1 hour. Then, the medium was removed and formazan crystals were dissolved in 100 μl of DMSO added to each well. A microplate reader was used to measure the absorbance at 570 nm, and cell viability was normalized to control. Statistical significance was calculated using Student's t-test, with significance levels set at **p<0.01, ***p<0.001, and ****p<0.0001.
A general note: Tetrazolium dyes change colour on reduction, which living cells bring about.

Assay [6] relates to SK-Hep-1 liver cancer cells. Kind of assay: MTT cell viability assay, TKI combination. Particulars: Homo sapiens, SK-HEP1, lenvatinib 15 μM, 24 hours, read-out: growth inhibition. How it is done:
as §2, §3

The test system of a further assay is Huh-7 liver cancer cells. Kind of assay: MTT cell viability assay, TKI combination. The note with it: Homo sapiens, lenvatinib 1.3 μM, 24 hours, read-out: growth inhibition. Here is the method:
as §2, §3

Assay [7] concerns A549 lung cancer cell line. Kind of assay: MTT cell viability assay, TKI combination. Particulars: Homo sapiens, bosutinib 12.5 μM, 24 hours, read-out: growth inhibition. Here is the method: as §2, §3
The subject of assay [8] is SKOV-3 ovarian cancer cells. Briefly: MTT cell viability assay, TKI combination. Particulars: Homo sapiens, SK-OV-3, ruxolitinib 30 μM, 24 hours, read-out: growth inhibition.

Consider `CNC(=O)c1cc(Oc2ccc(NC(=O)Nc3ccc(Cl)c(C(F)(F)F)c3)cc2)ccn1` [sorafenib], for which the cell proliferation entry in assay [1] and in assay [2] was “not affected” each time. The “cell death by sorafenib” value in assay [3] and in assay [4] was “did not increase” throughout.

Turning to `Cc1cc(Nc2ncc(Cl)c(Nc3ccccc3S(=O)(=O)C(C)C)n2)c(OC(C)C)cc1C1CCNCC1` [ceritinib], the inhibition at 2.5 µM in assay [5] was 17%.

For the compound `COc1cc2nccc(Oc3ccc(NC(=O)NC4CC4)c(Cl)c3)c2cc1C(N)=O` [lenvatinib], the inhibition at 15 µM in assay [6] was 16.7%. The inhibition at 1.3 µM with Huh-7 liver cancer cells was found to be 16.7%.

For the compound `COc1cc(Nc2c(C#N)cnc3cc(OCCCN4CCN(C)CC4)c(OC)cc23)c(Cl)cc1Cl` [bosutinib], the inhibition at 12.5 µM in assay [7] worked out at 16.3%.

Regarding `N#CC[C@H](C1CCCC1)n1cc(-c2ncnc3[nH]ccc23)cn1` [ruxolitinib], the inhibition at 30 µM in [8] came to 8.8%.
